In patent US11866405B2, “Substituted indazoles as IRAK4 inhibitors” (AstraZeneca AB, priority 2020, dated 2024):
Read-outs that look alike come from different tables or passages of the source.

How the values were obtained:
[1] = test system: human PBMCs stimulated with LPS; test: LPS-induced cytokine release in human PBMCs; assay type: cell-based; details: PBMC, 0.11 ng/mL LPS, 4 h
From the text: (§1) In Vitro Effect of IRAK4 Inhibitors on LPS- and IL-1β-Induced Cytokine Release in Human PBMCs
(§2) To evaluate the effect and potency of IRAK4 inhibitors on blocking disease-relevant pathways in human primary immune cells, we stimulated human PBMCs (peripheral blood mononuclear cells) with LPS (TLR4 agonist) or IL-1β (IL-1R ligand) and measured the release of the proinflammatory cytokines IL-6 and TNF-α. Briefly, PBMCs were isolated from human blood, donated from healthy individuals, using LymphoPrep density gradient and plated at a cell density of 200 000 cells/well (for LPS assay) or 300 000 cells/well (for IL-1β assay) in 96-well culture plates. Cells were incubated for 1 h with serial dilutions of IRAK4 inhibitor or vehicle (DMSO) prior to stimulation of cells with 0.11 ng/mL LPS (derived from E. coli) or 1 ng/mL recombinant human IL-1β. After 4 h of LPS stimulation or 20 h of […] stimulation, the supernatant was collected and the levels of the proinflammatory cytokines TNF-α, IL-8 and IL-6 were measured by Mesoscale Discovery (MSD) multiplex assay. Dose-response curves were plotted and IC50 values were calculated with 4-parameter curve fit using GraphPad Prism 8 (see Table 3).

[2] = target: IRAK4 auto-phosphorylation (Homo sapiens (Human), UniProt Q9NWZ3); test: IRAK4 phosphorylation cell assay in IL-1β-stimulated Karpas-299 cells; assay type: cell-based; details: IL-1β 22.7 ng/mL, pIRAK4 (Thr345/Ser346), geometric mean of at least 2 experiments
IRAK4 auto-phosphorylation, sequence (Q9NWZ3 whole entry): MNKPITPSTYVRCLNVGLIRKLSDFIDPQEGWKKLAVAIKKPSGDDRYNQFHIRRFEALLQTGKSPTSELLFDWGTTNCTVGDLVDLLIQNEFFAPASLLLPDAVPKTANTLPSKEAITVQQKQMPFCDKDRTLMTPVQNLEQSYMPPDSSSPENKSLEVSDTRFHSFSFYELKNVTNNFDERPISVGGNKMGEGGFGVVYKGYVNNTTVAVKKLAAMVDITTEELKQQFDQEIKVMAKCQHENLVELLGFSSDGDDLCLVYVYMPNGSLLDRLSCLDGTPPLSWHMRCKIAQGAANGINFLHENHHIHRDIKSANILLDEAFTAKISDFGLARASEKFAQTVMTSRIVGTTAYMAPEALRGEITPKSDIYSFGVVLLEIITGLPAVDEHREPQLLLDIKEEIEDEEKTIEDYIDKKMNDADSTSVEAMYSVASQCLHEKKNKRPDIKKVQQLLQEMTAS
How it was run: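 Karpas-299 cells were preincubated 1 h at 37 °C with compound (10-point half-log series, top 30 μM), then stimulated 10 min with 22.7 ng/mL IL-1β. Cells were fixed and stained for pIRAK4 (Thr345/Ser346), and per-cell fluorescence was quantified by high-content imaging. IC50 values are geometric means of at least 2 experiments.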

[3] = test system: human PBMCs stimulated with IL-1β; test: IL-1β-induced cytokine release in human PBMCs; assay type: cell-based; details: PBMC, 1 ng/mL IL-1β, 20 h
From the text: as §1, §2

[4] = test system: LPS-induced lung inflammation; test: Mouse model of LPS-induced airway inflammation; assay type: in vivo; details: mice, 5, 15 and 50 mg/kg oral, inhaled LPS 1 mg/mL, 4 h after challenge
Procedure: FIG. 1. In vivo dose response of Example 89 in an acute mouse model of LPS-induced lung inflammation. Example 89 compound was dosed orally to mice 1 h prior to inhaled LPS challenge (1 mg/mL). 4 h after the challenge, the animals were terminated and the levels of IL-6 and TNF-α released in the bronchoalveolar lavage fluid were measured. […] Individual data points represent individual animals, and bars represent the mean value of each group. Statistical differences between groups were calculated with a one-way ANOVA test comparing treatment groups to the vehicle group. **p<0.01, ***p<0.001. The ability of IRAK4 inhibitors according to the specification to reduce inflammatory cytokines and TNF-α in vivo is thus established.
In Vivo Effect of IRAK4 Inhibition in a Mouse Model of LPS-Induced Airway Inflammation
TLRs act as a first sensor of microbes and allergens in the airways and can mediate a rapid inflammatory response. A mouse model of inhaled LPS challenge was used to study the effect of IRAK4 inhibition on the processes of an acute TLR4-driven airway inflammation. […] The levels of proinflammatory cytokines were measured in the BALF supernatant using MSD multiplex assay 8 mice per treatment group were used, except for the LPS/vehicle group where 20 mice were used. […]

COc1cc2nn([C@@H]3CC[C@@H](O)C[C@H]3C)cc2cc1C(=O)Nc1cnc2cccnn12 [Example 89, 2-((1R,2R,4R)-4-hydroxy-2-methylcyclohexyl)-N-(imidazo[1,2-b]pyridazin-3-yl)-6-methoxy-2H-indazole-5-carboxamide]
IC50 ([1]; read-out: IC50, IL-6 read-out, LPS stimulation): 32 nM
IC50 ([1]; read-out: IC50, TNF-α read-out, LPS stimulation): 39 nM
IC50 [2]: 36 nM
IC50 ([3]; read-out: IC50, IL-6 read-out, IL-1β stimulation): 22 nM
IC50 ([3]; read-out: IC50, IL-8 read-out, IL-1β stimulation): 30 nM
levels of IL-6 in bronchoalveolar lavage fluid [4]: reduced the levels of IL-6 and TNF-α upon inhaled LPS challenge, in a dose-dependent manner
levels of TNF-α in bronchoalveolar lavage fluid [4]: reduced the levels of IL-6 and TNF-α upon inhaled LPS challenge, in a dose-dependent manner
